Results as given in ChEMBL document CHEMBL1201862, “PubChem BioAssay data set” (2004).
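Growth conditions: 96-well plates. Treatment: test compound, 48 hours, 5 concentrations. Analysis: linear interpolation between bracketing concentrations; unreached endpoints set to highest concentration. Abbreviation: GI50, concentration required for 50% inhibition of growth.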 Active and inactive are the calls of the source. No stated cut-off is given here; in the data, active = GI50 up to about 1.1 µM and inactive = higher.

What was measured:
Experiment in all cases: inhibition of tumour cell growth, NCI panel, 48 h
SK-MEL-2 = system: SK-MEL-2
OVCAR-3 = system: OVCAR-3
HT-29 = system: HT-29
T47D = system: T47D
SNB-19 = system: SNB-19
SF-268 = system: SF-268
KM12 = system: KM12
NCI-H23 = system: NCI-H23
IGROV-1 = system: IGROV-1
RXF 393 = system: RXF 393
K562 = system: K562
UO-31 = system: UO-31
HCC 2998 = system: HCC 2998
A498 = system: A498
SF-295 = system: SF-295
A549 = system: A549
BT-549 = system: BT-549
SNB-75 = system: SNB-75
MCF7 = system: MCF7
Malme-3M = system: Malme-3M

Measured: GI50

COc1ccc(CNc2nc3ccccc3nc2C(=O)O)cc1
inactive: SK-MEL-2 > 100 µM | OVCAR-3 > 100 µM | HT-29 > 100 µM | T47D 65.3 µM | SNB-19 > 100 µM | SF-268 > 100 µM | KM12 65.6 µM | NCI-H23 > 100 µM | IGROV-1 > 100 µM | RXF 393 > 100 µM | K562 93.3 µM | UO-31 39 µM | HCC 2998 > 100 µM | A498 > 100 µM | SF-295 51.4 µM | A549 > 100 µM | BT-549 > 100 µM | SNB-75 93.8 µM | MCF7 > 100 µM

COc1cc(C(c2ccc3c(c2)OCO3)C2SCCCS2)cc(OC)c1OC (stereo not drawn)
inactive: SK-MEL-2 77.4 µM | OVCAR-3 3.14 µM | HT-29 1.89 µM | T47D 3.56 µM | SNB-19 1.86 µM | SF-268 6.21 µM | KM12 3.09 µM | NCI-H23 3.76 µM | Malme-3M 3.36 µM | IGROV-1 2.49 µM | RXF 393 1.35 µM | K562 1.85 µM | UO-31 6.22 µM | HCC 2998 2.99 µM | A498 1.9 µM | SF-295 1.94 µM | A549 4.22 µM | BT-549 8.79 µM | SNB-75 2.21 µM | MCF7 2.62 µM

CC(=N\N=C\c1ccccn1)/C(C)=N/N=C(C)/C(C)=N/N=C/c1ccccn1
inactive: SK-MEL-2 > 100 µM | OVCAR-3 > 100 µM | HT-29 > 100 µM | T47D > 100 µM | SNB-19 > 100 µM | SF-268 > 100 µM | KM12 > 100 µM | NCI-H23 > 100 µM | Malme-3M > 100 µM | IGROV-1 > 100 µM | RXF 393 > 100 µM | UO-31 > 100 µM | HCC 2998 > 100 µM | A498 > 100 µM | SF-295 > 100 µM | A549 > 100 µM | BT-549 > 100 µM | SNB-75 > 100 µM | MCF7 > 100 µM

NN=C(CC(O)(C(F)(F)Cl)C(F)(F)Cl)CC(O)(C(F)(F)Cl)C(F)(F)Cl
inactive: SK-MEL-2 > 10 µM | OVCAR-3 > 10 µM | HT-29 > 10 µM | T47D > 10 µM | SNB-19 > 10 µM | SF-268 > 10 µM | KM12 > 10 µM | NCI-H23 > 10 µM | Malme-3M > 10 µM | IGROV-1 > 10 µM | RXF 393 > 10 µM | K562 > 10 µM | HCC 2998 > 10 µM | A498 > 10 µM | SF-295 > 10 µM | A549 > 10 µM | BT-549 > 10 µM | SNB-75 > 10 µM | MCF7 > 10 µM

CCC(=O)NCC1CCCN2CCCCC12 (stereo not drawn)
inactive: SK-MEL-2 > 100 µM | HT-29 > 100 µM | T47D > 100 µM | SNB-19 > 100 µM | SF-268 > 100 µM | KM12 > 100 µM | NCI-H23 > 100 µM | Malme-3M 44.7 µM | RXF 393 > 100 µM | K562 > 100 µM | UO-31 > 100 µM | HCC 2998 > 100 µM | A498 > 100 µM | SF-295 > 100 µM | A549 > 100 µM | BT-549 > 100 µM | SNB-75 > 100 µM | MCF7 > 100 µM

O=C(O)/C(Cc1ccc([N+](=O)[O-])cc1)=N\O
inactive: SK-MEL-2 > 100 µM | OVCAR-3 > 100 µM | HT-29 > 100 µM | T47D 94.6 µM | SNB-19 > 100 µM | SF-268 > 100 µM | KM12 > 100 µM | NCI-H23 > 100 µM | Malme-3M > 100 µM | IGROV-1 69.8 µM | RXF 393 > 100 µM | K562 > 100 µM | UO-31 23.8 µM | HCC 2998 > 100 µM | A498 > 100 µM | SF-295 > 100 µM | A549 > 100 µM | BT-549 76.2 µM | MCF7 > 100 µM

COc1cc(COC(=O)N2CCC2C(=O)O)c([N+](=O)[O-])cc1OC (stereo not drawn)
inactive: OVCAR-3 > 100 µM | HT-29 > 100 µM | T47D > 100 µM | SNB-19 > 100 µM | SF-268 > 100 µM | KM12 > 100 µM | NCI-H23 > 100 µM | Malme-3M > 100 µM | IGROV-1 > 100 µM | RXF 393 > 100 µM | K562 > 100 µM | UO-31 > 100 µM | HCC 2998 > 100 µM | A498 > 100 µM | SF-295 > 100 µM | A549 > 100 µM | BT-549 > 100 µM | SNB-75 > 100 µM | MCF7 > 100 µM
